Reference: BigSolDB 2.1

O=C(N[C@H](C(=O)O)c1ccccc1)OCc1ccccc1
solubility (mole fraction)
Settings | 283.15 K | 288.15 K | 293.15 K | 298.15 K | 303.15 K | 313.15 K | 323.15 K
in 2-butanone | 0.0446 | – | 0.0596 | – | 0.0762 | 0.0957 | 0.111
in acetone | 0.0605 | – | 0.0786 | – | 0.1 | 0.129 | 0.159
in acetonitrile | 0.0067 | – | 0.00966 | – | 0.0143 | 0.0253 | 0.053
in dichloromethane | 0.00624 | 0.00703 | 0.00874 | 0.0112 | 0.0149 | – | –
in ethanol | 0.0235 | – | 0.0354 | – | 0.0581 | 0.0922 | 0.141
in ethyl acetate | 0.0209 | – | 0.0274 | – | 0.0371 | 0.0549 | 0.073
in isopropanol | 0.0107 | – | 0.0175 | – | 0.0328 | 0.0604 | 0.105
in methanol | 0.0325 | – | 0.0479 | – | 0.0794 | 0.111 | 0.146
in methyl acetate | 0.028 | – | 0.0399 | – | 0.0541 | 0.0739 | 0.0918
in n-propanol | 0.0141 | – | 0.0231 | – | 0.039 | 0.068 | 0.11
in water | 1.1e-05 | – | 2.4e-05 | – | 4.5e-05 | 5.7e-05 | 6.9e-05
